This note sets out measurements from the NIST ThermoML archive (doi:10.1016/j.tca.2006.02.028).

Numbers after ± are expanded uncertainties.

The nature of the data set: excess molar enthalpy (molar enthalpy of mixing); xn = mol fraction of the nth substance listed. Particulars: 298.15 K, 101 kPa, Liquid, Titration calorimetry.

Consider `CO` [methanol] + O, for which the excess molar enthalpy was -0.0779 ± 0.000956 kcal/mol (x1 = 0.05); -0.131 ± 0.00167 kcal/mol (x1 = 0.1); -0.171 ± 0.00191 kcal/mol (x1 = 0.15); -0.193 ± 0.00215 kcal/mol (x1 = 0.2); -0.203 ± 0.00239 kcal/mol (x1 = 0.3); -0.201 ± 0.00215 kcal/mol (x1 = 0.4). Also, the excess molar enthalpy is, setting by setting: (x1 = 0.5) -0.186 ± 0.00215 kcal/mol; (x1 = 0.6) -0.163 ± 0.00191 kcal/mol; (x1 = 0.7) -0.139 ± 0.00167 kcal/mol; (x1 = 0.8) -0.0985 ± 0.0012 kcal/mol; (x1 = 0.9) -0.0576 ± 0.000717 kcal/mol; (x1 = 1) 0 ± 0.000239 kcal/mol.
With `O` [water] + CO, under “x2 = 0”, the excess molar enthalpy turned out to be 0 ± 0.000239 kcal/mol.
